Among the data in patent US7932270B2 (Cytokinetics, Inc., priority 2006, dated 2011) are IC50 values, retold here.

Each structure is given as a SMILES string.

The test deals with T1, chicken gizzard smooth muscle myosin subfragment-1 chemically crosslinked to cardiac or skeletal actin (Gallus gallus, UniProt P10587).
T1 construct: chicken gizzard smooth muscle myosin subfragment-1; from tissue; host or cells: chicken gizzard
T1 sequence (P02607 2-151): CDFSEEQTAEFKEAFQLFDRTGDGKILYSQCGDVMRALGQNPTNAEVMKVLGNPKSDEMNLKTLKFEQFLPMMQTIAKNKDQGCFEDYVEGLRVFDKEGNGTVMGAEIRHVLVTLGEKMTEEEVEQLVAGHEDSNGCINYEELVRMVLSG
T1 sequence (P10587 84-789): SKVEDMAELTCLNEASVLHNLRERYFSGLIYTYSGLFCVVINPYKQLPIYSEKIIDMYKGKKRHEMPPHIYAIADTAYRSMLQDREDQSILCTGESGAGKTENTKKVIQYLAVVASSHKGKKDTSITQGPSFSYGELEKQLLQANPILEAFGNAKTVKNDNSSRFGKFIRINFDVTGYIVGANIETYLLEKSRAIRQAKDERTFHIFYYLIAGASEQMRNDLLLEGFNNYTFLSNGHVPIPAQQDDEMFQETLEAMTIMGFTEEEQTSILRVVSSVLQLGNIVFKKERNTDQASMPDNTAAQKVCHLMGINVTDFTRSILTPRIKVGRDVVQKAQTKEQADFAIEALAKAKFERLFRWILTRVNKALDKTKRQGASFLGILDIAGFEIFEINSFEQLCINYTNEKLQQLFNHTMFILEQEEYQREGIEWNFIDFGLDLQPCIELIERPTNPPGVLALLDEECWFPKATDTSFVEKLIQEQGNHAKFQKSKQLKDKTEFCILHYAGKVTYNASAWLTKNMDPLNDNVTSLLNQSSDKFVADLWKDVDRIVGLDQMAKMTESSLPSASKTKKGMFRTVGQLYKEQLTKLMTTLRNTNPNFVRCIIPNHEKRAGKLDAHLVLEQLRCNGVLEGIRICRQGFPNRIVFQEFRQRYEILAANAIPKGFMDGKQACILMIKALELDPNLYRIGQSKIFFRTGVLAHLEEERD
Briefly: Smooth muscle myosin ATPase dose response assay (pyruvate kinase/horseradish peroxidase/pyruvate oxidase-coupled, amplex red fluorescence). In kind it is biochemical. As to conditions: read-out: IC50 Arithmetic Mean. The gist of the method: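 Chicken gizzard myosin S1 crosslinked to cardiac or skeletal actin, titrated to a set hydrolysis rate; 0.15 mM ATP, 12 mM PIPES pH 7.00, 100 mM KCl, 2 mM MgCl2. Pyruvate kinase/pyruvate oxidase/HRP coupling with amplex red fluorescence; IC50 from 4-parameter fit.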
For `C[C@@H](CO)CNC(=O)c1cc(F)c(-c2cn[nH]c2)nc1NCCc1cccc(F)c1` [N-((2R)-3-hydroxy-2-methylpropyl)(5-fluoro-2-{[2-(3-fluorophenyl)ethyl]amino}-6-pyrazol-4-yl(3-pyridyl))carboxamide], the IC50 is 59 nM.

Take `N#Cc1ccccc1-c1ccc(C(=O)NCc2cccnc2)c(NCCc2ccccn2)n1` [{6-(2-cyanophenyl)-2-[(2-(2-pyridyl)ethyl)amino](3-pyridyl)}-N-(3-pyridylmethyl)carboxamide]: the IC50 was 460 nM.

Turning to `C[C@H](CNC(=O)c1ccc(-c2ccccc2C#N)nc1NCCc1cccc(F)c1)NC(=O)CN`, the IC50 came out at 41 nM.

For `N#Cc1ccccc1-c1ccc(C(=O)NCc2ccno2)c(NCCc2cccc(F)c2)n1` [(6-(2-cyanophenyl)-2-{[2-(3-fluorophenyl)ethyl]amino}(3-pyridyl))-N-(isoxazol-5-ylmethyl)carboxamide], the IC50 was 21 nM.

`N#Cc1ccccc1-c1ccc(C(=O)NCCc2ccccn2)c(NCCc2cccc(F)c2)n1` [(6-(2-cyanophenyl)-2-{[2-(3-fluorophenyl)ethyl]amino}(3-pyridyl))-N-(2-(2-pyridyl)ethyl)carboxamide]: the IC50 came out at 291 nM.

`O=C(NCc1cccnc1)c1ccc(-c2sccc2CO)nc1NCCc1cccc(F)c1` [(2-{[2-(3-fluorophenyl)ethyl]amino}-6-[3-(hydroxymethyl)(2-thienyl)](3-pyridyl))-N-(3-pyridylmethyl)carboxamide]: the IC50 was determined as 2240 nM.

Turning to `Cc1cc(C(=O)NCc2cccnc2CN)c(NCCc2cccc(F)c2)nc1-c1cnn(C)c1` [N-{[2-(aminomethyl)(3-pyridyl)]methyl}(2-{[2-(3-fluorophenyl)ethyl]amino}-5-methyl-6-(1-methylpyrazol-4-yl)(3-pyridyl))carboxamide], the IC50 was 129 nM.

With `N#Cc1ccccc1-c1ccc(C(=O)N[C@H]2CCNC2=O)c(NCCc2cccc(F)c2)n1` [N-((3S)-2-oxopyrrolidin-3-yl)(6-(2-cyanophenyl)-2-{[2-(3-fluorophenyl)ethyl]amino}(3-pyridyl))carboxamide], the IC50 came out at 3250 nM.

Consider `CC(=O)N[C@@H](CNC(=O)c1ccc(-c2ccccc2C#N)nc1NCCc1cccc(F)c1)C(N)=O` [N-{(1S)-1-carbamoyl-2-[(6-(2-cyanophenyl)-2-{[2-(3-fluorophenyl)ethyl]amino}(3-pyridyl))carbonylamino]ethyl}acetamide], for which the IC50 stood at 2630 nM.

In the case of `N#Cc1ccccc1-c1ccc(C(=O)NCc2ccn(CCN)n2)c(NCCc2cccc(F)c2)n1` [N-{[1-(2-aminoethyl)pyrazol-3-yl]methyl}(6-(2-cyanophenyl)-2-{[2-(3-fluorophenyl)ethyl]amino}(3-pyridyl))carboxamide], the IC50 came to 296 nM.

Regarding `CC(C)(N)CNC(=O)c1ccc(-c2ccccc2C#N)nc1NCCc1cccc(F)c1` [N-(2-amino-2-methylpropyl)(6-(2-cyanophenyl)-2-{[2-(3-fluorophenyl)ethyl]amino}(3-pyridyl))carboxamide], the IC50 worked out at 666 nM.

Consider `N#Cc1ccc(-c2ccc(C(=O)NCc3cccnc3)c(NCCc3cccc(F)c3)n2)s1` [(6-(5-cyano(2-thienyl))-2-{[2-(3-fluorophenyl)ethyl]amino}(3-pyridyl))-N-(3-pyridylmethyl)carboxamide], for which the IC50 stood at 280 nM.

Turning to `N#Cc1ccccc1-c1ccc(C(=O)NCC2CCNC2)c(NCCc2cccc(F)c2)n1` (stereo not drawn) [(6-(2-cyanophenyl)-2-{[2-(3-fluorophenyl)ethyl]amino}(3-pyridyl))-N-(pyrrolidin-3-ylmethyl)carboxamide], the IC50 stood at 963 nM.

For `C[C@H](CNC(=O)c1ccc(-c2ccccc2C#N)nc1NCCc1cccc(F)c1)NC(=O)CCCNC(=O)OC(C)(C)C`, the IC50 stood at 49 nM.

Regarding `CC(C)CCNc1nc(-c2ccccc2)ccc1C(=O)NCc1cccnc1` [{2-[3-methylbutyl)amino]-6-phenyl(3-pyridyl)}-N-(3-pyridylmethyl)carboxamide], the IC50 came to 2480 nM.

For `NCc1cccc(CCNC(=O)c2ccc(-c3ccccc3)nc2NCCc2cccc(F)c2)n1` [N-{2-[6-(aminomethyl)(2-pyridyl)]ethyl}(2-{[2-(3-fluorophenyl)ethyl]amino}-6-phenyl(3-pyridyl))carboxamide], the IC50 turned out to be 252 nM.

Turning to `O=C(NCc1cccnc1)c1ccc(-c2cn[nH]c2)nc1NCCc1cccc(F)c1` [(2-{[2-(3-fluorophenyl)ethyl]amino}-6-pyrazol-4-yl(3-pyridyl))-N-(3-pyridylmethyl)carboxamide], the IC50 came out at 44 nM.

On to `C[C@@H](N)CNC(=O)c1cc(F)c(-c2cnn(C)c2)nc1NCCc1cccc(F)c1` [N-((2R)-2-aminopropyl)(5-fluoro-2-{[2-(3-fluorophenyl)ethyl]amino}-6-(1-methylpyrazol-4-yl)(3-pyridyl))carboxamide], for which the IC50 was 398 nM.

As for `CNC(=O)c1ccc(-c2ccccc2)nc1NCCc1ccccc1` [N-methyl{6-phenyl-2-[(2-phenylethyl)amino](3-pyridyl)}carboxamide], the IC50 was 18600 nM.

On to `N#Cc1ccccc1-c1ccc(C(=O)NCCN2CCNCC2)c(NCCc2cccc(F)c2)n1` [(6-(2-cyanophenyl)-2-{[2-(3-fluorophenyl)ethyl]amino}(3-pyridyl))-N-(2-piperazinylethyl)carboxamide], for which the IC50 came to 16200 nM.

Regarding `C[C@H](CNC(=O)c1cc(F)c(-c2cnn(C)c2)nc1NCCc1cccc(F)c1)NC(=O)CCCN`, the IC50 was 116 nM.

Take `CC(C)(C)OC(=O)NCCn1nccc1CNC(=O)c1ccc(-c2ccccc2C#N)nc1NCCc1cccc(F)c1` [N-[(1-{2-[(tert-butoxy)carbonylamino]ethyl}pyrazol-5-yl)methyl](6-(2-cyanophenyl)-2-{[2-(3-fluorophenyl)ethyl]amino}(3-pyridyl))carboxamide]: the IC50 was 2200 nM.

Turning to `COC(=O)N1CC[C@@H]1CNC(=O)c1ccc(-c2cn[nH]c2)nc1NCCc1cccc(F)c1` [methyl (2R)-2-{[(2-{[2-(3-fluorophenyl)ethyl]amino}-6-pyrazol-4-yl(3-pyridyl))carbonylamino]methyl}azetidinecarboxylate], the IC50 worked out at 245 nM.

In the case of `CC(C)(C)OC(=O)NCCCC(=O)N1CCC[C@@H]1CNC(=O)c1cc(C#N)c(-c2cn[nH]c2)nc1NCCc1cccc(F)c1` [N-[((2R)-1-{4-[(tert-butoxy)carbonylamino]butanoyl}pyrrolidin-2-yl)methyl](5-cyano-2-{[2-(3-fluorophenyl)ethyl]amino}-6-pyrazol-4-yl(3-pyridyl))carboxamide], the half-inhibitory concentration (IC50) is 3420 nM.

Regarding `C[C@H](CNC(=O)c1cc(F)c(-c2cnn(C)c2)nc1NCCc1cccc(F)c1)NC(=O)[C@@H](N)CO`, the IC50 was 115 nM.

Take `CNC(=O)CNC(=O)c1ccc(-c2ccccc2C#N)nc1NCCc1cccc(F)c1` [2-[(6-(2-cyanophenyl)-2-{[2-(3-fluorophenyl)ethyl]amino}(3-pyridyl))carbonylamino]-N-methylacetamide]: the IC50 worked out at 102 nM.

In the case of `CC(C)(C)OC(=O)NCC(=O)N1CCCC[C@H]1CNC(=O)c1ccc(-c2ccccc2C#N)nc1NCCc1cccc(F)c1` [N-[((2S)-1-{2-[(tert-butoxy)carbonylamino]acetyl}(2-piperidyl))methyl](6-(2-cyanophenyl)-2-{[2-(3-fluorophenyl)ethyl]amino}(3-pyridyl))carboxamide], the IC50 was found to be 17000 nM.

Regarding `N#Cc1ccccc1-c1ccc(C(=O)NCc2ccc(C(F)(F)F)cn2)c(NCCc2cccc(F)c2)n1` [(6-(2-cyanophenyl)-2-{[2-(3-fluorophenyl)ethyl]amino}(3-pyridyl))-N-{[5-(trifluoromethyl)(2-pyridyl)]methyl}carboxamide], the IC50 was 1500 nM.

Take `N#Cc1ccccc1-c1ccc(C(=O)NCC2CCCCCN2C(=O)CN)c(NCCc2cccc(F)c2)n1` (stereo not drawn) [N-{[1-(2-aminoacetyl)azaperhydroepin-2-yl]methyl}(6-(2-cyanophenyl)-2-{[2-(3-fluorophenyl)ethyl]amino}(3-pyridyl))carboxamide]: the IC50 is 248 nM.

Consider `C[C@H](CNC(=O)c1cc(F)c(-c2cnn(C)c2)nc1NCCc1cccc(F)c1)C(N)=O` [N-((2R)-2-carbamoylpropyl)(5-fluoro-2-{[2-(3-fluorophenyl)ethyl]amino}-6-(1-methylpyrazol-4-yl)(3-pyridyl))carboxamide], for which the IC50 was determined as 89 nM.

As to `O=C(NCc1cccnc1)c1ccc(-c2cccc(O)c2)nc1NCCc1ccccn1` [{6-(3-hydroxyphenyl)-2-[(2-(2-pyridyl)ethyl)amino](3-pyridyl)}-N-(3-pyridylmethyl)carboxamide], the IC50 was determined as 790 nM.

In the case of `CC1(C)OCC(CNC(=O)c2cc(F)c(-c3cn[nH]c3)nc2NCCc2cccc(F)c2)CO1` [N-[(2,2-dimethyl(1,3-dioxan-5-yl))methyl](5-fluoro-2-{[2-(3-fluorophenyl)ethyl]amino}-6-pyrazol-4-yl(3-pyridyl))carboxamide], the IC50 is 927 nM.

Turning to `C[C@H](CNC(=O)c1cc(F)c(-c2cnn(C)c2)nc1NCCc1cccc(F)c1)NC(=O)CN`, the IC50 was 76 nM.

On to `CN1CCN(C(=O)CCN)C[C@@H]1CNC(=O)c1ccc(-c2ccccc2C#N)nc1NCCc1cccc(F)c1` [N-{[(2S)-4-(3-aminopropanoyl)-1-methylpiperazin-2-yl]methyl}(6-(2-cyanophenyl)-2-{[2-(3-fluorophenyl)ethyl]amino}(3-pyridyl))carboxamide], for which the IC50 is 17000 nM.

As to `N#Cc1ccccc1-c1ccc(C(=O)NCc2cccc(CNCCN)n2)c(NCCc2cccc(F)c2)n1` [N-[(6-{[(2-aminoethyl)amino]methyl}(2-pyridyl))methyl](6-(2-cyanophenyl)-2-{[2-(3-fluorophenyl)ethyl]amino}(3-pyridyl))carboxamide], the IC50 came out at 19 nM.

For `CC(O)[C@H](C)CNC(=O)c1cc(F)c(-c2cnn(C)c2)nc1NCCc1cccc(F)c1` (stereo partly drawn) [N-((2R)-3-hydroxy-2-methylbutyl)(5-fluoro-2-{[2-(3-fluorophenyl)ethyl]amino}-6-(1-methylpyrazol-4-yl)(3-pyridyl))carboxamide], the IC50 is 283 nM.

As usually defined, the IC50 is the concentration needed to halve the response being measured.
